Results taken from US11090319B2, “Therapeutic uses of pharmaceutical compositions comprising cyclic boronic acid ester derivatives” (Melinta Subsidiary Corp., priority 2010, dated 2021).

Experiments:
[1] = system: KPX1001 OXA-2; type: cell-based
Procedure: (§1) Selected β-lactamase inhibitors were also tested for their ability to potentiate the monobactam tigemonam.

[2] = system: ECL1002; assay: Tigemonam potentiation assay (MPC@4), class C and D; type: cell-based, Enterobacter cloacae
Procedure: as §1

[3] = system: KP1007 OXA-10; type: cell-based, Klebsiella pneumoniae
Procedure: as §1

[4] = system: EC1010 CMY-6; assay: Tigemonam potentiation assay (MPC@4), class C and D; type: cell-based, Escherichia coli; details: EC1010 CMY-6 class C
Procedure: as §1

[5] = system: PAM2035; assay: as above; type: cell-based, Pseudomonas aeruginosa
Procedure: as §1

**Q.** What does the source list for `CC1(C)[C@H](NC(=O)/C(=N\OCC(=O)O)c2csc(N)n2)C(=O)N1OS(=O)(=O)O` [Tigemonam]?
**A.** Tigemonam MIC [1]: 8 µg/mL; Tigemonam MIC [2]: 32 µg/mL; Tigemonam MIC [3]: 256 µg/mL; Tigemonam MIC [4]: 16 µg/mL; Tigemonam MIC [5]: 8 µg/mL
